The source of these data is PubChem BioAssay (NCI).

What is called TGI is the concentration giving total growth inhibition.

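Exposure lasted 48 hours, with cells grown in 96-well plates and compounds tested at five concentrations. TGI denotes the concentration required for complete inhibition of growth.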

Among the test systems are SNB-19 CNS; UO-31 renal; SF-295 CNS; SNB-75 CNS; M14 melanoma; T-47D breast; DU-145 prostate; HOP-92 NSCLC; A549 NSCLC; MCF7 breast; NCI-H460 lung; HCT-116 colon; HL-60(TB) leukemia; OVCAR-3 ovarian; SK-MEL-5 melanoma; SF-539 CNS; UACC-257 melanoma; UACC-62 melanoma; A498 renal; DMS 273 small cell lung.
Holding throughout (assay): DTP human tumour cell line panel, 48 h

As for `Cc1ccc2c(=O)cc(-c3ccsc3)[nH]c2n1`, the TGI in the assay with SNB-19 CNS was 86.7 µM; in the assay on UO-31 renal it was 9.47 µM; in the assay with SF-295 CNS, 23.6 µM; with SNB-75 CNS, 35 µM; with M14 melanoma it was above 58.1 µM; in the assay on T-47D breast it was above 74.9 µM. For the same compound, the TGI in the assay on DU-145 prostate is above 89.8 µM; in the assay with HOP-92 NSCLC it was above 100 µM; in the assay with A549 NSCLC, above 44.7 µM; with MCF7 breast it was above 100 µM; in the assay on NCI-H460 lung, above 100 µM; in the assay with HCT-116 colon, above 75.6 µM. The TGI in the assay on HL-60(TB) leukemia is 20.2 µM; in the assay with OVCAR-3 ovarian, above 100 µM; in the assay with SK-MEL-5 melanoma it was above 28.5 µM; in the assay on SF-539 CNS, 33.2 µM; in the assay on UACC-257 melanoma it was above 100 µM; in the assay with UACC-62 melanoma it was above 100 µM. For the same compound, the TGI with A498 renal was above 100 µM.
As for `Cc1ccc(NC2=N/C(=C/c3ccccc3)C(Cl)=N2)cc1`, the TGI in the assay on SNB-19 CNS, in the assay with UO-31 renal, in the assay with SF-295 CNS, in the assay on SNB-75 CNS, with M14 melanoma and in the assay with T-47D breast was above 100 µM each time. Moreover, the total growth inhibition concentration (TGI) in the assay on DU-145 prostate, in the assay with HOP-92 NSCLC, in the assay with A549 NSCLC, in the assay on MCF7 breast, in the assay with NCI-H460 lung and with HCT-116 colon was above 100 µM in each case. Moreover, the total growth inhibition concentration (TGI) with HL-60(TB) leukemia is above 63.3 µM; with OVCAR-3 ovarian, above 100 µM; in the assay with SK-MEL-5 melanoma it was above 100 µM; in the assay on SF-539 CNS, above 100 µM; in the assay with UACC-257 melanoma, above 100 µM; in the assay on UACC-62 melanoma it was above 100 µM. Further, the TGI in the assay with A498 renal is above 100 µM.
As to `O=[N+]([O-])c1c(C=Nc2ccccc2)oc(-c2ccc3c(c2)OCO3)c1-c1ccc2c(c1)OCO2`, the TGI in the assay with SNB-19 CNS, with UO-31 renal, in the assay on SF-295 CNS, with SNB-75 CNS, in the assay with M14 melanoma and in the assay on HOP-92 NSCLC was above 100 µM in each case. Further, the TGI with A549 NSCLC, in the assay on NCI-H460 lung, with HCT-116 colon, in the assay with HL-60(TB) leukemia, with OVCAR-3 ovarian and with SK-MEL-5 melanoma was above 100 µM in each case. The TGI in the assay with SF-539 CNS, in the assay on UACC-257 melanoma, with UACC-62 melanoma and in the assay with DMS 273 small cell lung was above 100 µM each time.
Regarding `N#CCC(=O)N/N=C(\C(=O)Nc1ccc(Cl)c(Cl)c1)C1CN(c2ccccc2)N=C1N` (stereo not given), the TGI with UO-31 renal, in the assay with SF-295 CNS, with SNB-75 CNS, in the assay on M14 melanoma, in the assay on HOP-92 NSCLC and in the assay with A549 NSCLC was above 100 µM in each case. Further, the TGI in the assay with NCI-H460 lung, with HCT-116 colon, in the assay with HL-60(TB) leukemia, in the assay with OVCAR-3 ovarian, in the assay with SK-MEL-5 melanoma and with SF-539 CNS was above 100 µM each time. Also, the TGI with UACC-257 melanoma, in the assay with UACC-62 melanoma, in the assay with DMS 273 small cell lung and in the assay with A498 renal was above 100 µM in each case.
Take `Brc1cc2c(cc1C1SCCS1)OCO2`: the TGI in the assay with SNB-19 CNS, in the assay on UO-31 renal, in the assay with SF-295 CNS, with SNB-75 CNS, in the assay with M14 melanoma and in the assay on A549 NSCLC was above 100 µM each time. The TGI in the assay on NCI-H460 lung, in the assay with HCT-116 colon, in the assay with HL-60(TB) leukemia, in the assay with OVCAR-3 ovarian, with SK-MEL-5 melanoma and in the assay with SF-539 CNS was above 100 µM throughout. The concentration for total growth inhibition (TGI) in the assay on UACC-257 melanoma, in the assay on UACC-62 melanoma, in the assay with DMS 273 small cell lung and in the assay with A498 renal was above 100 µM throughout.
Turning to `CN(C)CCCCN1c2ccccc2Sc2ccc(C(=O)c3ccccc3)cc21`, the TGI with SNB-19 CNS came to 12 µM; with UO-31 renal, 10 µM; with SF-295 CNS it was 4.82 µM; with SNB-75 CNS it was 6.92 µM; in the assay with M14 melanoma, 3.25 µM; in the assay on T-47D breast it was 13 µM. For the same compound, the TGI came to 10.7 µM in the assay on DU-145 prostate; 8.99 µM in the assay with HOP-92 NSCLC; 7.22 µM in the assay on A549 NSCLC; 3.05 µM with MCF7 breast; 5.46 µM in the assay with NCI-H460 lung; 4.9 µM with HCT-116 colon. For the same compound, the TGI in the assay on HL-60(TB) leukemia was found to be 3.97 µM; with OVCAR-3 ovarian, 9.88 µM; in the assay with SK-MEL-5 melanoma, 3.42 µM; with SF-539 CNS it was 6.59 µM; with UACC-257 melanoma, 3.76 µM; with UACC-62 melanoma, 6.39 µM. Also, in the assay on A498 renal, the TGI was 32.5 µM.
For `CNC(=O)CN(C)C(=O)CCC(=O)N(C)C`, the TGI in the assay on SNB-19 CNS, in the assay on UO-31 renal, in the assay with SF-295 CNS, in the assay with SNB-75 CNS, in the assay with M14 melanoma and in the assay on T-47D breast was above 100 µM throughout. The TGI in the assay with DU-145 prostate, with HOP-92 NSCLC, with A549 NSCLC, in the assay with MCF7 breast, with NCI-H460 lung and in the assay on HCT-116 colon was above 100 µM throughout. In addition, the TGI in the assay with HL-60(TB) leukemia, with OVCAR-3 ovarian, in the assay with SK-MEL-5 melanoma, in the assay with SF-539 CNS, in the assay with UACC-257 melanoma and with UACC-62 melanoma was above 100 µM each time. Also, the concentration for total growth inhibition (TGI) with A498 renal was above 100 µM.
`CC(=O)c1cccc(NC(=O)C(=O)Nn2c(N)nnc2N)c1`: the TGI in the assay with SNB-19 CNS, in the assay with UO-31 renal, in the assay on SF-295 CNS, with SNB-75 CNS, in the assay on M14 melanoma and with HOP-92 NSCLC was above 100 µM in each case. The TGI with A549 NSCLC, with NCI-H460 lung, with HCT-116 colon, in the assay on HL-60(TB) leukemia, with SK-MEL-5 melanoma and in the assay on SF-539 CNS was above 100 µM in each case. The TGI with UACC-257 melanoma, in the assay on UACC-62 melanoma, in the assay on DMS 273 small cell lung and with A498 renal was above 100 µM throughout.
